What is called solubility is the concentration that dissolves in the medium under given conditions.

The source of these data is patent US6551605B2, “Diesters or polyesters of naphthalene dicarboxylic acid as solubilizer/stabilizer for retinoids” (Haarmann & Reimer, priority 2001, dated 2003).

Molecules are shown by their SMILES. Converted amounts (≈) assume the structure as drawn.

The nature of data set [1]: Solubility of retinoids in diethylhexyl 2,6-naphthalate (HallBrite TQ). The settings on record: organic solvent or mixture, read-out: solubility in diethylhexyl diester of 2,6-naphthalene-dicarboxylic acid. In kind it is physicochemical. How it is done:
Retinoids are lipophilic. […] For example, isotretinoin is soluble in the diethylhexyl diester of 2,6-naphthalene-dicarboxylic acid (diethylhexyl 2,6-naphthalate, HallBrite TQ, C. P. Hall) at approximately 6.7 mg/ml, and tretinoin is soluble in the same diester at approximately 5.6 mg/ml.

Data set [2] has as its system skin. The settings on record: topical, 0.1% versus 0.025%; cited from earlier work.
Data set [3] deals with skin. The settings on record: topical, 0.1% versus 0.025%; cited from earlier work. This is another data set of the same source.
For data set [4] the following is noted: cited from earlier work.
For data set [5] the following is noted: cited from earlier work. The source holds these as a separate data set.

Regarding `CC1=C(/C=C/C(C)=C/C=C/C(C)=C\C(=O)O)C(C)(C)CCC1` [isotretinoin, 13-cis-retinoic acid], in data set [1], the solubility is roughly 6.7 mg/mL (≈ 22.3 mM). Further, in the data set on skin [2], the degree of irritation entry is “more irritating”. Also, the therapeutic effectiveness result in the data set on skin [3] was “more effective”.
As for `CC1=C(/C=C/C(C)=C/C=C/C(C)=C/C(=O)O)C(C)(C)CCC1` [tretinoin, all-trans-retinoic acid], in data set [1], the solubility was roughly 5.6 mg/mL (≈ 18.6 mM). Also, the solubility in chloroform result in data set [4] (chloroform) was “slightly soluble”. Moreover, in data set [4] (dimethyl sulfoxide), the “solubility in dimethyl sulfoxide” value was 40 mg/mL (≈ 133 mM). Also, the solubility in ether entry in data set [4] (ether) was “sparingly soluble”. The “solubility in methylene chloride” value in data set [4] (methylene chloride) is “soluble”. For the same compound, the solubility in water result in data set [4] (water) is recorded as “practically insoluble”. The “stability of aqueous solutions” value in data set [5] (aqueous solutions) is given as “deteriorate quickly”. In addition, the “stability of solutions in pure organic solvents” value in data set [5] (pure organic solvents, stored in the dark) is given as “stable”.
